Assay results published in patent publication EP4342487A2, “PHARMACEUTICAL COMPOSITION COMPRISING GIP DERIVATIVE OR LONG-ACTING CONJUGATE THEREOF FOR PREVENTING OR TREATING PULMONARY DISEASE” (Hanmi Pharm. Co., Ltd., priority 2021, dated 2022).

Assays:
Assay type in all cases: cell-based, human
THP-1 cell line [1] = experiment: Inflammation-related cytokines in the medium of PMA and LPS-induced THP-1 cells (ELISA); conditions: THP-1, 150 nm PMA and 0.1 µg/mL LPS, native GIP 1 µM, long-acting GIP derivative 0.1 µM or 1 µM, FIG. 2B
Protocol: Additionally, in order to measure the concentrations of the inflammation-related cytokines IL-6, IL-12/23 p40, IL-1β, and TNF-α in the medium of the THP-1 cell line, 150 nm of phorbol 12-myristate 13-acetate (PMA) and 0.1 µg/mL of LPS were added thereto to induce an inflammatory reaction, and the cells were treated with the native GIP and the long-acting GIP derivative: the native GIP was used at a concentration of 1 µM and the long-acting GIP derivative was diluted to a concentration of 0.1 µM or 1 µM. As the medium, Human IL-6 ELISA Kit (Abcam, US), Human IL-12/23 p40 ELISA Kit (Abcam, US), Human IL-1beta ELISA Kit (Abcam, US), and Human TNF alpha ELISA Kit (Abcam, US)were used for quantification.

THP-1 cell line [2] = experiment: Anti-inflammatory effect in LPS-induced THP-1 cells, mRNA level (qPCR); conditions: THP-1, 1 µg/mL LPS; native GIP 10 µM, long-acting GIP derivative 1 or 10 µM; FIG. 2A
Protocol: To confirm the anti-inflammatory effect of the long-acting GIP derivative on COPD in vitro, a human monocyte/macrophage cell line, THP-1, was used. Macrophages are known to induce the progression of inflammation by secreting cytokines and chemokines at the initial stage of infection and mobilizing other immune cells.
The THP-1 cell line was cultured in a RPMI 1640 medium supplemented with 10% fetal bovine serum (FBS), 100 µg/mL streptomycin, 100 U/mL penicillin, and 0.05 mM β-mercaptoethanol, at a temperature of 37 °C in 5% carbon dioxide conditions. An inflammatory response was induced by adding 1 µg/mL of lipopolysaccharide (LPS) to the cell line, and the effect on the inflammatory response by LPS when treated with native GIP and long-acting GIP derivatives was confirmed at the mRNA level. The native GIP was added at the concentration 10 µM, and the long-acting GIP derivative was diluted at a concentration of 1 or 10 µM and added. As the long-acting GIP derivative, the long-acting GIP conjugate (SEQ ID NO: 17) prepared in Example 3 was used.
RNA was isolated from the THP-1 cell line after the treatment was completed by using the RNeasy Mini Kit (Qiagen, US), and cDNA was synthesized using the iScript™ cDNA Synthesis Kit (Bio-rad, US). […]

A549 cell line = experiment: Inflammation and EMT in A549 cells treated with TGF-β1 and LPS (qPCR); conditions: native GIP 10 µM, long-acting GIP derivative 1 or 10 µM
Protocol: The A549 cell line, a human alveolar epithelial cell, was used to confirm the inflammatory and fibrosis amelioration effect of long-acting GIP derivatives on COPD in vitro. The purpose of this experiment was to determine the effect of alveolar epithelial cells on epithelial mesenchymal transition (EMT), which is known to be important in the pulmonary fibrosis process.
The A549 cell line was cultured in a F-12K medium supplemented with 10% fetal bovine serum (FBS), 100 µg/mL streptomycin, and 100 U/mL penicillin at a temperature of 37 °C and in 5% carbon dioxide conditions. Cell lines were sequentially treated with TGF-β1 and LPS to induce inflammatory responses and EMT. The native GIP was added at the concentration 10 µM, and the long-acting GIP derivative was diluted at a concentration of 1 or 10 µM and added. As the long-acting GIP derivative, the long-acting GIP conjugate (SEQ ID NO: 17) prepared in Example 3 was used.
RNA was isolated from the A549 cell line after the treatment was completed by using the RNeasy Mini Kit (Qiagen, US), and cDNA was synthesized using the iScript™ cDNA Synthesis Kit (Bio-rad, US). Regarding the synthesized cDNA, the expression level of inflammation and EMT-related genes was confirmed by using the QuantStudio 6 Flex Real-Time PCR System (Applied Biosystems, US). Delta Delta Ct method was used, and beta-actin was used as a housekeeping gene. […]

native GIP: hormone composed of 42 amino acids secreted from the K cells of the small intestine (YAEGTFISDYSIAMDKIHQQDFVNWLLAQKGKKNDWKHNITQ; Gastric inhibitory polypeptide; UniProt P09681 52-93, looked up)
concentrations of the inflammation-related cytokines IL-6, IL-12/23 p40, IL-1β, and TNF-α in the medium (THP-1 cell line [1]): decreased | relative expression levels of inflammation-related genes IL-6, IL-12, IL-1β, and TNF-α (THP-1 cell line [2]): decreased | relative expression levels of inflammation-related genes IL-6, IL-12, and TNF-α (A549 cell line; FIG. 3A): significantly decreased | relative expression levels of EMT marker fibronectin, Col1α1, and Col3α1 (A549 cell line; FIG. 3B): decreased
